Laboratory results as given in the NIST ThermoML archive (doi:10.1021/je049711t).
± gives the expanded uncertainty stated by the source.

Assay: refractive index (Na D-line) (dimensionless)
Conditions: 293.15 K; 101.33 kPa; Liquid; Standard Abbe refractometry

refractive index	SMILES
1.3772 ± 0.0008	CC(=O)OC(C)C [1-methylethyl ethanoate]
1.3719 ± 0.0007	CC(=O)O [acetic acid]
1.4021 ± 0.0008	CCCCCOC(C)=O [pentyl ethanoate]
1.333 ± 0.0008	O [water]
